tested on: Matricaria recutita, Diplotaxis tenuifolia, Agrostis spp., Poa annua, or Arabidopsis thaliana; assay: Plant phenotyping assay (herbicidal phenotypes, 96-well plates); assay type: in vivo; details: visual score of herbicidal phenotypes after seven days; 238, 475, 950, and 1900 g ai/ha (50-400 uM); further: key: '+++' is highly active; '++' is moderately active; '+' is weakly active; '−' is inactive
Procedure: Seeds of Matricaria recutita, Diplotaxis tenuifolia, Agrostis spp., Poa annua, or Arabidopsis thaliana were sown into 96-well plates containing 200 μl of growth media [0.5× Murashige and Skoog (MS) basal media (Sigma-Aldrich), 2.5 mM 2-(N-morpholino) ethanesulfonic acid (MES—Sigma-Aldrich), 0.7 g/L Phytagar (Invitrogen); pH 5.7]. Three to five seeds were distributed per well. Plates were placed under fifteen hours of light at 23° C., 65% humidity in a controlled environment growth chamber. After approximately three days, test compounds and controls were mixed with acetone and emulsified with an equal volume of 3% methyl ester of rapeseed oil (Mero), and applied to plants at concentrations of 238, 475, 950, and 1900 g ai/ha (50-400 uM).

Row | SMILES | Plant Activity
1 | O=C1CCC(N2C(=O)c3cccc(OCCOCCOCCOc4cccc(C(=O)C5C(=O)CCCC5=O)c4Cl)c3C2=O)C(=O)N1 (centres unmarked) [Compound 1, 4-[2-[2-[2-[2-chloro-3-(2,6-dioxocyclohexanecarbonyl)phenoxy]ethoxy]ethoxy]-ethoxy]-2-(2,6-dioxo-3-piperidyl)isoindoline-1,3-dione] | ++
2 | O=C(COc1cccc2c1C(=O)N(C1CCC(=O)NC1=O)C2=O)NCCOCCOc1cccc(C(=O)C2C(=O)CCCC2=O)c1Cl (centres unmarked) [Compound 1-A, N-(2-(2-(2-Chloro-3-(2,6-dioxocyclohexane-1-carbonyl)phenoxy)ethoxy)ethyl)-2-((2-(2,6-dioxopiperidin-3-yl)-1,3-dioxoisoindolin-4-yl)oxy)acetamide] | +
3 | O=C1CCC(N2C(=O)c3ccc(N4CCN(CCOCCOCCOc5cccc(C(=O)C6C(=O)CCCC6=O)c5Cl)CC4)cc3C2=O)C(=O)N1 (centres unmarked) [Compound 2, 5-[4-[2-[2-[2-[2-chloro-3-(2,6-dioxocyclohexane-carbonyl)phenoxy]ethoxy]-ethoxy]ethyl]piperazin-1-yl]-2-(2,6-dioxo-3-piperidyl)isoindoline-1,3-dione] | +
4 | O=C1CCC(N2C(=O)c3ccc(N4CCN(CCOCCOCCOCCN5CCC(Oc6cccc(C(=O)C7C(=O)CCCC7=O)c6Cl)CC5)CC4)cc3C2=O)C(=O)N1 (centres unmarked) [Compound 2-A, 5-[4-[2-[2-[2-[2-[4-[2-Chloro-3-(2,6-dioxocyclohexanecarbonyl)phenoxy]-1-piperidyl]ethoxy]ethoxy]ethoxy]ethyl]piperazin-1-yl]-2-(2,6-dioxo-3-piperidyl)isoindoline-1,3-dione] | +
5 | O=C1CCC(N2C(=O)c3ccc(N4CCN(CCCC5CCN(CCOCCOc6cccc(C(=O)C7C(=O)CCCC7=O)c6Cl)CC5)CC4)cc3C2=O)C(=O)N1 (centres unmarked) [Compound 2-B, 5-(4-(3-(1-(2-(2-(2-Chloro-3-(2,6-dioxocyclohexane-1-carbonyl)phenoxy)ethoxy)ethyl)piperidin-4-yl)propyl)piperazin-1-yl)-2-(2,6-dioxopiperidin-3-yl)isoindoline-1,3-dione] | +
6 | CS(=O)(=O)c1ccc(C(=O)C2C(=O)CCCC2=O)c(Cl)c1OCCOCCOCCOc1ccc2c(c1)C(=O)N(C1CCC(=O)NC1=O)C2=O (centres unmarked) [Compound 3, 5-[2-[2-[2-[2-chloro-3-(2,6-dioxocyclohexanecarbonyl)-6-methylsulfonyl-phenoxy]ethoxy]ethoxy]ethoxy]-2-(2,6-dioxo-3-piperidyl)isoindoline-1,3-dione] | ++
7 | COc1cnc(OC)n2nc(NS(=O)(=O)c3c(OCCOc4ccc5c(c4)C(=O)N(C4CCC(=O)NC4=O)C5=O)cccc3C(F)(F)F)nc12 (centres unmarked) [Compound 4, N-(5,8-dimethoxy-[1,2,4]triazolo[1,5-c]pyrimidin-2-yl)-2-[2-[2-(2,6-dioxo-3-piperidyl)-1,3-dioxo-isoindolin-5-yl]oxyethoxy]-6-(trifluoromethyl)benzenesulfonamide] | +
8 | COc1cnc(OC)n2nc(NS(=O)(=O)c3c(OCCOCCOCCOCCOCCOc4ccc5c(c4)C(=O)N(C4CCC(=O)NC4=O)C5=O)cccc3C(F)(F)F)nc12 (centres unmarked) [Compound 4-A, N-(5,8-Dimethoxy-[1,2,4]triazolo[1,5-c]pyrimidin-2-yl)-2-((14-((2-(2,6-dioxopiperidin-3-yl)-1,3-dioxoisoindolin-5-yl)oxy)-3,6,9,12-tetraoxatetradecyl)oxy)-6-(trifluoromethyl)benzenesulfonamide] | +++
9 | COc1cnc(OC)n2nc(NS(=O)(=O)c3c(OCCOCCOCCOc4ccc5c(c4)C(=O)N(C4CCC(=O)NC4=O)C5=O)cccc3C(F)(F)F)nc12 (centres unmarked) [Compound 4-C, N-(5,8-Dimethoxy-[1,2,4]triazolo[1,5-c]pyrimidin-2-yl)-2-(2-(2-(2-((2-(2,6-dioxopiperidin-3-yl)-1,3-dioxoisoindolin-5-yl)oxy)ethoxy)ethoxy)ethoxy)-6-(trifluoromethyl)benzenesulfonamide] | +++
10 | COc1cnc(OC)n2nc(NS(=O)(=O)c3c(OCCOCCOCCOCCOc4ccc5c(c4)C(=O)N(C4CCC(=O)NC4=O)C5=O)cccc3C(F)(F)F)nc12 (centres unmarked) [Compound 4-D, N-(5,8-Dimethoxy-[1,2,4]triazolo[1,5-c]pyrimidin-2-yl)-2-(2-(2-(2-(2-((2-(2,6-dioxopiperidin-3-yl)-1,3-dioxoisoindolin-5-yl)oxy)ethoxy)ethoxy)ethoxy)ethoxy)-6-(trifluoromethyl)benzenesulfonamide] | +++
11 | COc1cnc(OC)n2nc(NS(=O)(=O)c3c(OCCOCCOCCOCCOCCOCCOc4cccc5c4C(=O)N(C4CCC(=O)NC4=O)C5=O)cccc3C(F)(F)F)nc12 (centres unmarked) [Compound 4-E, N-(5,8-Dimethoxy-[1,2,4]triazolo[1,5-c]pyrimidin-2-yl)-2-((17-((2-(2,6-dioxopiperidin-3-yl)-1,3-dioxoisoindolin-4-yl)oxy)-3,6,9,12,15-pentaoxaheptadecyl)oxy)-6-(trifluoromethyl)benzenesulfonamide] | ++
12 | COc1cnc(OC)n2nc(NS(=O)(=O)c3c(OCCOCCOCCOCCOCCNc4cccc5c4C(=O)N(C4CCC(=O)NC4=O)C5=O)cccc3C(F)(F)F)nc12 (centres unmarked) [Compound 4-F, N-(5,8-Dimethoxy-[1,2,4]triazolo[1,5-c]pyrimidin-2-yl)-2-((14-((2-(2,6-dioxopiperidin-3-yl)-1,3-dioxoisoindolin-4-yl)amino)-3,6,9,12-tetraoxatetradecyl)oxy)-6-(trifluoromethyl)benzenesulfonamide] | +++
13 | COc1cnc(OC)n2nc(NS(=O)(=O)c3c(OCCOCCOCCOCCNC(=O)COc4cccc5c4C(=O)N(C4CCC(=O)NC4=O)C5=O)cccc3C(F)(F)F)nc12 (centres unmarked) [Compound 4-G, N-(2-(2-(2-(2-(2-(N-(5,8-Dimethoxy-[1,2,4]triazolo[1,5-c]pyrimidin-2-yl)sulfamoyl)-3-(trifluoromethyl)phenoxy)ethoxy)ethoxy)ethoxy)ethyl)-2-((2-(2,6-dioxopiperidin-3-yl)-1,3-dioxoisoindolin-4-yl)oxy)acetamide] | ++
14 | COc1cnc(OC)n2nc(NS(=O)(=O)c3c(OCCOCCOCCOCCOCCNC(=O)COc4cccc5c4C(=O)N(C4CCC(=O)NC4=O)C5=O)cccc3C(F)(F)F)nc12 (centres unmarked) [Compound 4-H, N-(14-(2-(N-(5,8-Dimethoxy-[1,2,4]triazolo[1,5-c]pyrimidin-2-yl)sulfamoyl)-3-(trifluoromethyl)phenoxy)-3,6,9,12-tetraoxatetradecyl)-2-((2-(2,6-dioxopiperidin-3-yl)-1,3-dioxoisoindolin-4-yl)oxy)acetamide] | +++
15 | COc1cnc(OC)n2nc(NS(=O)(=O)c3c(OC4CCN(CCOCCOCCN5CCN(c6ccc7c(c6)C(=O)N(C6CCC(=O)NC6=O)C7=O)CC5)CC4)cccc3C(F)(F)F)nc12 (centres unmarked) [Compound 4-I, N-(5,8-Dimethoxy-[1,2,4]triazolo[1,5-c]pyrimidin-2-yl)-2-((1-(2-(2-(2-(4-(2-(2,6-dioxopiperidin-3-yl)-1,3-dioxoisoindolin-5-yl)piperazin-1-yl)ethoxy)ethoxy)ethyl)piperidin-4-yl)oxy)-6-(trifluoromethyl)benzenesulfonamide] | +
16 | COc1cnc(OC)n2nc(NS(=O)(=O)c3c(OCCOCCOCCN4CCC(CCCN5CCN(c6ccc7c(c6)C(=O)N(C6CCC(=O)NC6=O)C7=O)CC5)CC4)cccc3C(F)(F)F)nc12 (centres unmarked) [Compound 4-J, N-(5,8-Dimethoxy-[1,2,4]triazolo[1,5-c]pyrimidin-2-yl)-2-(2-(2-(2-(4-(3-(4-(2-(2,6-dioxopiperidin-3-yl)-1,3-dioxoisoindolin-5-yl)piperazin-1-yl)propyl)piperidin-1-yl)ethoxy)ethoxy)ethoxy)-6-(trifluoromethyl)benzenesulfonamide] | −
17 | COc1cnc(OC)n2nc(NS(=O)(=O)c3c(OCCOCCN4CCC(CCCN5CCN(c6ccc7c(c6)C(=O)N(C6CCC(=O)NC6=O)C7=O)CC5)CC4)cccc3C(F)(F)F)nc12 (centres unmarked) [Compound 4-K, N-(5,8-Dimethoxy-[1,2,4]triazolo[1,5-c]pyrimidin-2-yl)-2-(2-(2-(4-(3-(4-(2-(2,6-dioxopiperidin-3-yl)-1,3-dioxoisoindolin-5-yl)piperazin-1-yl)propyl)piperidin-1-yl)ethoxy)ethoxy)-6-(trifluoromethyl)benzenesulfonamide] | +
18 | COc1cnc(OC)n2nc(NS(=O)(=O)c3c(OCCN4CCC(CCCN5CCN(c6ccc7c(c6)C(=O)N(C6CCC(=O)NC6=O)C7=O)CC5)CC4)cccc3C(F)(F)F)nc12 (centres unmarked) [Compound 4-L, N-(5,8-Dimethoxy-[1,2,4]triazolo[1,5-c]pyrimidin-2-yl)-2-(2-(4-(3-(4-(2-(2,6-dioxopiperidin-3-yl)-1,3-dioxoisoindolin-5-yl)piperazin-1-yl)propyl)piperidin-1-yl)ethoxy)-6-(trifluoromethyl)benzenesulfonamide] | −
19 | COc1cnc(OC)n2nc(NS(=O)(=O)c3c(OCCCC4CCN(CCOCCOc5ccc6c(c5)C(=O)N(C5CCC(=O)NC5=O)C6=O)CC4)cccc3C(F)(F)F)nc12 (centres unmarked) [Compound 4-M, N-(5,8-Dimethoxy-[1,2,4]triazolo[1,5-c]pyrimidin-2-yl)-2-(3-(1-(2-(2-((2-(2,6-dioxopiperidin-3-yl)-1,3-dioxoisoindolin-5-yl)oxy)ethoxy)ethyl)piperidin-4-yl)propoxy)-6-(trifluoromethyl)benzenesulfonamide] | +
20 | COc1cnc(OC)n2nc(NS(=O)(=O)c3c(OCCCC4CCN(CCOCCOCCOc5ccc6c(c5)C(=O)N(C5CCC(=O)NC5=O)C6=O)CC4)cccc3C(F)(F)F)nc12 (centres unmarked) [Compound 4-N, N-(5,8-Dimethoxy-[1,2,4]triazolo[1,5-c]pyrimidin-2-yl)-2-(3-(1-(2-(2-(2-((2-(2,6-dioxopiperidin-3-yl)-1,3-dioxoisoindolin-5-yl)oxy)ethoxy)ethoxy)ethyl)piperidin-4-yl)propoxy)-6-(trifluoromethyl)benzenesulfonamide] | −
